The text below walks through data of patent US8124629B2, “Naphthylacetic acids” (Hoffmann-La Roche Inc., priority 2008, dated 2012).

For this assay, the target named is T1, human CRTH2 (Homo sapiens, UniProt Q9Y5Y4).
T1 sequence (Q9Y5Y4 1-395): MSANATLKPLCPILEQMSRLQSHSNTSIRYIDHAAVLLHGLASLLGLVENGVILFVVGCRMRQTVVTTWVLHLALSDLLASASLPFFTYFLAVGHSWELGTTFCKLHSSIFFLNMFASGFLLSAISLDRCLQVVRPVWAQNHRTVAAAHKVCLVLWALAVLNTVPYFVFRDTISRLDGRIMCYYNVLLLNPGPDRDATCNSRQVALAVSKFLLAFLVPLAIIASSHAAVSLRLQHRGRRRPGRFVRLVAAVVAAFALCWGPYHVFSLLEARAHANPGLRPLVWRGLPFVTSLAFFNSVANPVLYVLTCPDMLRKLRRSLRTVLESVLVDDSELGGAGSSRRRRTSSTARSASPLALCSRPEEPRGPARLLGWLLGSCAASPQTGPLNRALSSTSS
As to the kind of experiment: Human CRTH2 Receptor Binding Assay (whole cell, [3H]ramatroban). More on the design: expressed in transfected cells; host or cells: CHO-K1. The settings on record: CHO-K1 cells expressing human CRTH2 and G-alpha16; 20 nM [3H]ramatroban; 1 hour, room temperature. The source says: A whole cell receptor binding assay using [^3H]ramatroban as the competing radioactive ligand was employed to evaluate the compound binding activity to human CRTH2. The radioactive ligand [^3H]ramatroban was synthesized according to Sugimoto et. al. (Eur. J. Pharmacol. 524, 30-37, 2005) to a specific activity of 42 Ci/mmol.
A cell line stably expressing human CRTH2 was established by transfecting CHO-K1 cells with two mammalian expression vectors that harbored human CRTH2 and G-alpha16 cDNAs, respectively, using FuGene® 6 transfection reagent (from Roche). Stable clones expressing CRTH2 were selected by staining each clone with BM16 (BD Pharmingen™ from BD Biosciences, a division of Becton, Dickinson and Company), which is a rat monoclonal antibody to human CRTH2. The cells were maintained as monolayer cultures in Ham's F-12 medium containing 10% fetal bovine serum, 100 units/mL penicillin, 100 μg/mL streptomycin, 2 mM glutamine, 0.5 mg/mL G418 (geneticin) for CRTH2, and 0.2 mg/mL hygromycin-B (for G-alpha 16). For whole cell receptor binding assay, the monolayer cells were rinsed once with PBS (phosphate buffered saline), dissociated using ethylenediaminetetraacetate (Versene™ EDTA from Lonza Inc.), and suspended in PBS containing 10 mM MgCl2 and 0.06% BSA (bovine serum albumin) at 1.5×10^6 cells/mL.
The binding reactions (0.2 mL) were performed in 96-well plates at room temperature in PBS containing 1.5×10^5 cells, 10 mM MgCl2, 0.06% BSA, 20 nM [^3H]ramatroban, and test compound at various concentrations. After 1 hour of binding reactions, the cells were harvested on GF™/B filter microplates (microtiter plates with embedded glass fiber from Perkin Elmer, Inc.) and washed 5 times with PBS using a Filtermate™ Harvester (a cell harvester that harvests and washes cells from microplates from PerkinElmer, Inc.). The radioactivities bound to the cells were determined using a microplate scintillation counter (TopCount® NXT, from PerkinElmer, Inc.) after adding 50 μL of Microscint™ 20 scintillation fluid (from PerkinElmer, Inc.) to each well of the filter plates. The radioactivity from non-specific binding was determined by replacing compound with 10 μM of 15(R)-15-methyl PGD2 (from Cayman Chemical Company) in the reaction mixtures. The radioactivity bound to the cells in the absence of compound (total binding) was determined by replacing compound with 0.25% of DMSO (dimethyl sulfoxide) in the reaction mixture. Specific binding data were obtained by subtracting the radioactivity of non-specific binding from each binding data.
The IC50 value is defined as the concentration of the tested compound that is required for 50% inhibition of total specific binding. In order to calculate the IC50 value, the percent inhibition data were determined for 7 concentrations for each compound. The percent inhibition for a compound at each concentration was calculated according to the following formula, [1-(specific binding in the presence of compound)/(total specific binding)]×100. The IC50 value was then obtained by fitting the percent inhibition data to a sigmoidal dose-response (4 parameter logistic) model in the XLfit® software Excel add-in program [from ID Business Solutions Ltd., model 205, where F(x)=(A+(B−A)/(1+((C/×)^D)))].

With `Cc1c(CC(=O)O)cc2ccc(F)cc2c1Cc1cccc(C#N)c1` [Example 10-9, [4-(3-Cyano-benzyl)-6-fluoro-3-methyl-naphthalen-2-yl]-acetic acid], the 50% inhibitory concentration (IC50) was found to be 0.0599 µM.
`Cc1c(CC(=O)O)cc2ccc(F)cc2c1Cc1ccc(-c2nnnn2C)cc1` [Example 10-10, {6-Fluoro-3-methyl-4-[4-(1-methyl-1H-tetrazol-5-yl)-benzyl]-naphthalen-2-yl}-acetic acid] yielded an IC50 of 0.0325 µM.
Turning to `CN(C)S(=O)(=O)c1ccc(C(=O)c2cc(CC(=O)O)cc3ccc(F)cc23)cc1` [Example 2-14, [4-(4-Dimethylsulfamoyl-benzoyl)-6-fluoro-naphthalen-2-yl]-acetic acid], the IC50 worked out at 0.0027 µM.
In the case of `Cc1c(CC(=O)O)cc2ccc(F)cc2c1C(O)c1ccc(S(C)(=O)=O)cc1` (centres unmarked) [Example 19-1, {6-Fluoro-4-[hydroxy-(4-methanesulfonyl-phenyl)-methyl]-3-methyl-naphthalen-2-yl}-acetic acid], the IC50 amounted to 0.0118 µM.
Compound `CCS(=O)(=O)c1ccc(C(O)c2cc(CC(=O)O)cc3ccc(F)cc23)cc1` (centres unmarked) [Example 16-7, {4-[(4-Ethanesulfonyl-phenyl)-hydroxy-methyl]-6-fluoro-naphthalen-2-yl}-acetic acid] registered an IC50 of 0.0174 µM.
With `O=C(O)Cc1cc(C(=O)c2ccc(S(=O)(=O)N3CCN(c4ccccc4F)CC3)cc2)c2cc(F)ccc2c1` [Example 2-26, (6-Fluoro-4-{4-[4-(2-fluoro-phenyl)-piperazine-1-sulfonyl]-benzoyl}-naphthalen-2-yl)-acetic acid] the figure was 0.007 µM; with `Cc1c(CC(=O)O)cc2ccc(F)cc2c1Cc1ccc(S(C)(=O)=O)cc1` [Example 10-1, [6-Fluoro-4-(4-methanesulfonyl-benzyl)-3-methyl-naphthalen-2-yl]-acetic acid], 0.0039 µM; with `CCS(=O)(=O)c1ccc(Cc2cc(CC(=O)O)cc3ccc(F)cc23)cc1` [Example 8-9, [4-(4-Ethanesulfonyl-benzyl)-6-fluoro-naphthalen-2-yl]-acetic acid], 0.0043 µM.
`CNS(=O)(=O)c1ccc(Cc2cc(CC(=O)O)cc3ccc(F)cc23)cc1` [Example 9-1, [6-Fluoro-4-(4-methylsulfamoyl-benzyl)-naphthalen-2-yl]-acetic acid] returned an IC50 of 0.0032 µM.
For `CS(=O)(=O)c1cccc(C(=O)c2cc(CC(=O)O)cc3ccc(F)cc23)c1` [Example 2-10, [6-Fluoro-4-(3-methanesulfonyl-benzoyl)-naphthalen-2-yl]-acetic acid] the value was 0.0448 µM; for `CS(=O)(=O)c1ccc(C(=O)c2cc(CC(=O)O)cc3cc(F)ccc23)cc1` [Example 2-4, [7-Fluoro-4-(4-methanesulfonyl-benzoyl)-naphthalen-2-yl]-acetic acid], 0.0406 µM; for `COc1ccc2cc(CC(=O)O)cc(C(=O)c3ccc(S(C)(=O)=O)cc3)c2c1` [Example 2-2, [4-(4-Methanesulfonyl-benzoyl)-6-methoxy-naphthalen-2-yl]-acetic acid], 0.0264 µM.
For `Cc1c(CC(=O)O)cc2ccc(F)cc2c1Cc1ccc(-c2cncnc2)cc1` [Example 12-2, [6-Fluoro-3-methyl-4-(4-pyrimidin-5-yl-benzyl)-naphthalen-2-yl]-acetic acid], the IC50 worked out at 0.0102 µM.
With `CS(=O)(=O)c1ccc(C(=O)c2cc(CC(=O)O)cc3ccc(F)cc23)c(Cl)c1` [Example 2-8, [4-(2-chloro-4-methanesulfonyl-benzoyl)-6-fluoro-naphthalen-2-yl]-acetic acid] the figure was 0.0085 µM; with `CNS(=O)(=O)c1ccc(C(O)c2cc(CC(=O)O)cc3ccc(F)cc23)cc1` (centres unmarked) [Example 20-1, {6-Fluoro-4-[hydroxy-(4-methylsulfamoyl-phenyl)-methyl]-naphthalen-2-yl}-acetic acid], 0.0221 µM; with `Cc1c(CC(=O)O)cc2ccc(F)cc2c1Cc1cccc(-c2nnnn2C)c1` [Example 10-7, (6-Fluoro-3-methyl-4-[3-(1-methyl-1H-tetrazol-5-yl)-benzyl]-naphthalen-2-yl]-acetic acid], 0.0067 µM.
For `Cc1cc(S(=O)(=O)N(C)C)ccc1C(=O)c1cc(CC(=O)O)cc2ccc(F)cc12` [Example 2-24, [4-(4-Dimethylsulfamoyl-2-methyl-benzoyl)-6-fluoro-naphthalen-2-yl]-acetic acid] the value was 0.0069 µM.
For `CS(=O)(=O)c1ccc(Cc2cc(CC(=O)O)cc3ccc(F)cc23)cc1` [Example 8-4, [6-Fluoro-4-(4-methanesulfonyl-benzyl)-naphthalen-2-yl]-acetic acid] the value was 0.0061 µM; for `CCN(CC)S(=O)(=O)c1ccc(C(=O)c2cc(CC(=O)O)cc3ccc(F)cc23)cc1` [Example 2-22, [4-(4-Diethylsulfamoyl-benzoyl)-6-fluoro-naphthalen-2-yl]-acetic acid], 0.0025 µM; for `Cc1ccc(Cc2c(C)c(CC(=O)O)cc3ccc(F)cc23)cc1` [Example 15-1, [6-Fluoro-3-methyl-4-(4-methyl-benzyl)-naphthalen-2-yl]-acetic acid], 0.0601 µM.
For `Cc1c(CC(=O)O)cc2ccc(F)cc2c1Cc1ccc(C#N)cc1` [Example 10-5, [4-(4-Cyano-benzyl)-6-fluoro-3-methyl-naphthalen-2-yl]-acetic acid], the IC50 is 0.0124 µM.
For `CCS(=O)(=O)c1ccc(C(=O)c2cc(CC(=O)O)cc3ccc(F)cc23)c(C)c1` [Example 2-20, [4-(4-Ethanesulfonyl-2-methyl-benzoyl)-6-fluoro-naphthalen-2-yl]-acetic acid] the value was 0.0179 µM; for `Cc1c(CC(=O)O)cc2ccc(F)cc2c1Cc1ccc(-n2cccn2)cc1` [Example 10-6, [6-Fluoro-3-methyl-4-(4-pyrazol-1-yl-benzyl)-naphthalen-2-yl]-acetic acid], 0.0267 µM.
